According to the NIST ThermoML archive (doi:10.1021/acs.jced.7b00227):

How the values were obtained:
[1] = Molar enthalpy of transition or fusion; details: Crystal; DSC

O=Cc1ccc(O)cc1 [4-hydroxybenzaldehyde]
Details	vapor or sublimation pressure [kPa]
319.14 K, Crystal, Calculated from knudsen effusion weight loss	7.6e-05
321.31 K, Crystal, Calculated from knudsen effusion weight loss	0.000101
323.2 K, Crystal, Calculated from knudsen effusion weight loss	0.000124
325.16 K, Crystal, Calculated from knudsen effusion weight loss	0.000152
327.35 K, Crystal, Calculated from knudsen effusion weight loss	0.000196
329.21 K, Crystal, Calculated from knudsen effusion weight loss	0.00024
331.15 K, Crystal, Calculated from knudsen effusion weight loss	0.000305
333.36 K, Crystal, Calculated from knudsen effusion weight loss	0.000383
334.88 K, Crystal, Closed cell (Static) method	0.00047
335.2 K, Crystal, Calculated from knudsen effusion weight loss	0.000476
336.84 K, Crystal, Closed cell (Static) method	0.00058
337.14 K, Crystal, Calculated from knudsen effusion weight loss	0.000583
338.82 K, Crystal, Closed cell (Static) method	0.00072
339.28 K, Crystal, Calculated from knudsen effusion weight loss	0.000737
340.78 K, Crystal, Closed cell (Static) method	0.00089
341.2 K, Crystal, Calculated from knudsen effusion weight loss	0.00091
342.79 K, Crystal, Closed cell (Static) method	0.00109
344.73 K, Crystal, Closed cell (Static) method	0.00133
346.72 K, Crystal, Closed cell (Static) method	0.00165
348.7 K, Crystal, Closed cell (Static) method	0.00199
350.66 K, Crystal, Closed cell (Static) method	0.00241
352.65 K, Crystal, Closed cell (Static) method	0.00296
354.62 K, Crystal, Closed cell (Static) method	0.00358
356.58 K, Crystal, Closed cell (Static) method	0.00433
358.56 K, Crystal, Closed cell (Static) method	0.00525
360.53 K, Crystal, Closed cell (Static) method	0.0064
362.52 K, Crystal, Closed cell (Static) method	0.00769
364.51 K, Crystal, Closed cell (Static) method	0.00915
366.46 K, Crystal, Closed cell (Static) method	0.01071
368.43 K, Crystal, Closed cell (Static) method	0.01274
370.43 K, Crystal, Closed cell (Static) method	0.01545
372.39 K, Crystal, Closed cell (Static) method	0.01842
374.32 K, Crystal, Closed cell (Static) method	0.02206
376.26 K, Crystal, Closed cell (Static) method	0.02606
378.18 K, Metastable liquid, Closed cell (Static) method	0.03765
378.32 K, Crystal, Closed cell (Static) method	0.03067
380.28 K, Metastable liquid, Closed cell (Static) method	0.04331
380.29 K, Crystal, Closed cell (Static) method	0.03625
382.26 K, Metastable liquid, Closed cell (Static) method	0.04915
384.18 K, Metastable liquid, Closed cell (Static) method	0.05575
385.95 K, Metastable liquid, Closed cell (Static) method	0.06255
388.15 K, Metastable liquid, Closed cell (Static) method	0.07155
390.14 K, Metastable liquid, Closed cell (Static) method	0.08085
392.11 K, Closed cell (Static) method, Liquid	0.09145
393.98 K, Closed cell (Static) method, Liquid	0.1013
396.02 K, Closed cell (Static) method, Liquid	0.1156
398.08 K, Closed cell (Static) method, Liquid	0.132
399.97 K, Closed cell (Static) method, Liquid	0.1466
402.15 K, Closed cell (Static) method, Liquid	0.1659
403.9 K, Closed cell (Static) method, Liquid	0.184
406.15 K, Closed cell (Static) method, Liquid	0.2077
407.83 K, Closed cell (Static) method, Liquid	0.2288
409.81 K, Closed cell (Static) method, Liquid	0.2537
411.77 K, Closed cell (Static) method, Liquid	0.281
413.71 K, Closed cell (Static) method, Liquid	0.315
415.68 K, Closed cell (Static) method, Liquid	0.3477
417.65 K, Closed cell (Static) method, Liquid	0.3831
419.62 K, Closed cell (Static) method, Liquid	0.4264
421.57 K, Closed cell (Static) method, Liquid	0.4738
423.73 K, Closed cell (Static) method, Liquid	0.5285
425.48 K, Closed cell (Static) method, Liquid	0.5776
427.46 K, Closed cell (Static) method, Liquid	0.6379
429.41 K, Closed cell (Static) method, Liquid	0.7018

Details	Normal melting temperature [°C]
Crystal, DTA	117.1

Details	Molar enthalpy of transition or fusion [kcal/mol]
[1]	5.16
